Results as given in ChEMBL document CHEMBL1201862, “PubChem BioAssay data set” (2004).
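In this assay, cells in 96-well plates receive the compound at five concentrations for 48 hours. Endpoints are linearly interpolated between the surrounding concentrations. GI50 = concentration required for 50% inhibition of growth.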 Calls of active or inactive are those of the source. No stated cut-off is given here; in the data, active = GI50 up to about 1.1 µM and inactive = higher.

Key:
Experiment in all cases: NCI anticancer screen, dose series, 48 h
NCI-H522 = tested on: NCI-H522
SK-MEL-28 = tested on: SK-MEL-28
U-251 = tested on: U-251
UO-31 = tested on: UO-31
NCI-H23 = tested on: NCI-H23
SNB-75 = tested on: SNB-75
CCRF-CEM = tested on: CCRF-CEM
786-0 = tested on: 786-0
UACC-62 = tested on: UACC-62
SF-268 = tested on: SF-268
SW-620 = tested on: SW-620
OVCAR-3 = tested on: OVCAR-3
SF-295 = tested on: SF-295
SR = tested on: SR
NCI-H460 = tested on: NCI-H460
RXF 393 = tested on: RXF 393
COLO 205 = tested on: COLO 205
RPMI-8226 = tested on: RPMI-8226
NCI/ADR-RES = tested on: NCI/ADR-RES
BT-549 = tested on: BT-549

| SMILES | GI50 (NCI-H522) | GI50 (SK-MEL-28) | GI50 (U-251) | GI50 (UO-31) | GI50 (NCI-H23) | GI50 (SNB-75) | GI50 (CCRF-CEM) | GI50 (786-0) | GI50 (UACC-62) | GI50 (SF-268) | GI50 (SW-620) | GI50 (OVCAR-3) | GI50 (SF-295) | GI50 (SR) | GI50 (NCI-H460) | GI50 (RXF 393) | GI50 (COLO 205) | GI50 (RPMI-8226) | GI50 (NCI/ADR-RES) | GI50 (BT-549) |
| --- | --- | --- | --- | --- | --- | --- | --- | --- | --- | --- | --- | --- | --- | --- | --- | --- | --- | --- | --- | --- |
| O=[N+]([O-])C(=C1Nc2ccccc2N1)C(Cl)=C(Cl)Cl | > 100 µM (inactive) | > 100 µM (inactive) | > 100 µM (inactive) | 65 µM (inactive) | 84.5 µM (inactive) | < 0.01 µM (active) | 32.4 µM (inactive) | 63.4 µM (inactive) | > 100 µM (inactive) | 44.1 µM (inactive) | > 100 µM (inactive) | 18.6 µM (inactive) | > 100 µM (inactive) | 51.3 µM (inactive) | > 100 µM (inactive) | 99.1 µM (inactive) | > 100 µM (inactive) | 70 µM (inactive) |  |  |
| CCSc1nc(=S)n(-c2ccccc2)c(C)c1C(C)=O | > 100 µM (inactive) | > 100 µM (inactive) | > 100 µM (inactive) | > 100 µM (inactive) | > 100 µM (inactive) | > 100 µM (inactive) | > 100 µM (inactive) | > 100 µM (inactive) | > 100 µM (inactive) | > 100 µM (inactive) | > 100 µM (inactive) | > 100 µM (inactive) | > 100 µM (inactive) | > 100 µM (inactive) | > 100 µM (inactive) | > 100 µM (inactive) | > 100 µM (inactive) | > 100 µM (inactive) | > 100 µM (inactive) |  |
| CCOC(=O)c1c(NCc2ccccc2)n(-c2ccccc2)c(=S)n(-c2ccccc2)c1=O | 57.8 µM (inactive) | > 100 µM (inactive) | > 100 µM (inactive) | 45.8 µM (inactive) | > 100 µM (inactive) | 33.7 µM (inactive) | 29.4 µM (inactive) | > 100 µM (inactive) | 94.8 µM (inactive) | > 100 µM (inactive) | > 100 µM (inactive) | > 100 µM (inactive) | 49.4 µM (inactive) | 33.7 µM (inactive) | > 100 µM (inactive) | > 100 µM (inactive) | 76.2 µM (inactive) | 35.6 µM (inactive) |  | 36.9 µM (inactive) |
| CN1CC2=C(N=C(S)NC2c2ccccc2Cl)/C(=C/c2ccccc2Cl)C1 (stereo unspecified) | 29.6 µM (inactive) | > 100 µM (inactive) | 80.5 µM (inactive) | 25.6 µM (inactive) | 43.2 µM (inactive) | 3.33 µM (inactive) | 28.8 µM (inactive) | > 100 µM (inactive) | 14.7 µM (inactive) | 95.9 µM (inactive) | > 100 µM (inactive) | 21.5 µM (inactive) | 53.5 µM (inactive) | 17.7 µM (inactive) | > 100 µM (inactive) | > 100 µM (inactive) | 21.8 µM (inactive) |  | 30.5 µM (inactive) |  |
| COC(=O)CCn1cnc2c(SC)ncnc21 | > 100 µM (inactive) | > 100 µM (inactive) |  | > 100 µM (inactive) | > 100 µM (inactive) | > 100 µM (inactive) | > 100 µM (inactive) | > 100 µM (inactive) | > 100 µM (inactive) | > 100 µM (inactive) | > 100 µM (inactive) | > 100 µM (inactive) | > 100 µM (inactive) | > 100 µM (inactive) | > 100 µM (inactive) | > 100 µM (inactive) | > 100 µM (inactive) | > 100 µM (inactive) | > 100 µM (inactive) |  |
| O=C1CSc2ccnc(=O)n21 | > 100 µM (inactive) | > 100 µM (inactive) | > 100 µM (inactive) | > 100 µM (inactive) | > 100 µM (inactive) | 93.5 µM (inactive) | > 100 µM (inactive) | > 100 µM (inactive) | > 100 µM (inactive) | > 100 µM (inactive) | > 100 µM (inactive) |  |  | > 100 µM (inactive) | > 100 µM (inactive) | > 100 µM (inactive) | > 100 µM (inactive) | > 100 µM (inactive) |  | > 100 µM (inactive) |
| COC(=O)N[C@@H]1C[C@H]2CC[C@]1(O[Si](C(C)C)(C(C)C)C(C)C)C(=O)C2 | 8.59 µM (inactive) | 14.6 µM (inactive) | > 10 µM (inactive) | 14.1 µM (inactive) | 17.1 µM (inactive) | 20 µM (inactive) | 18 µM (inactive) | 17.9 µM (inactive) | 15.6 µM (inactive) | 12.9 µM (inactive) | 27.7 µM (inactive) | 17.7 µM (inactive) | 14.7 µM (inactive) | 6.93 µM (inactive) | 20.7 µM (inactive) |  | 34.6 µM (inactive) | 15.8 µM (inactive) | 14.8 µM (inactive) |  |
| O=C(O)CCCc1ccc2c(c1)CC1(C2)Cc2ccc(CCCC(=O)O)cc2C1 | > 100 µM (inactive) |  | > 100 µM (inactive) | > 100 µM (inactive) | > 100 µM (inactive) |  | > 100 µM (inactive) | > 100 µM (inactive) | > 100 µM (inactive) |  |  | > 100 µM (inactive) | > 100 µM (inactive) | > 100 µM (inactive) |  | > 100 µM (inactive) | > 100 µM (inactive) | > 100 µM (inactive) | > 100 µM (inactive) |  |
| CCC(C#N)NCc1ccc(CNC(C#N)CC)cc1 (stereo unspecified) | > 100 µM (inactive) | > 100 µM (inactive) | > 100 µM (inactive) | 95.7 µM (inactive) | > 100 µM (inactive) |  | > 100 µM (inactive) | > 100 µM (inactive) | 86.5 µM (inactive) | > 100 µM (inactive) | > 100 µM (inactive) | > 100 µM (inactive) | > 100 µM (inactive) |  | > 100 µM (inactive) | > 100 µM (inactive) | > 100 µM (inactive) |  | > 100 µM (inactive) | > 100 µM (inactive) |
| CCCCCCCCCCC(=O)CCCCCCC(=O)O | 21.4 µM (inactive) | 40 µM (inactive) | 20.7 µM (inactive) | 23.7 µM (inactive) | 30.1 µM (inactive) | 29.6 µM (inactive) | 19.5 µM (inactive) | 18.8 µM (inactive) | 17.9 µM (inactive) | 50.5 µM (inactive) | 22.4 µM (inactive) | 18.2 µM (inactive) | 21.5 µM (inactive) | 18.2 µM (inactive) | 16.5 µM (inactive) | 36.3 µM (inactive) | 15.4 µM (inactive) | 13.4 µM (inactive) |  |  |
| CCCC1(N2C(=O)c3ccc4c5c(ccc(c35)C2=O)N(C2(CCC)CCCCC2)C4=O)CCCCC1 | > 100 µM (inactive) | > 100 µM (inactive) | > 100 µM (inactive) | > 100 µM (inactive) | > 100 µM (inactive) |  |  | > 100 µM (inactive) | > 100 µM (inactive) | > 100 µM (inactive) | > 100 µM (inactive) | > 100 µM (inactive) | > 100 µM (inactive) |  | > 100 µM (inactive) | > 100 µM (inactive) | > 100 µM (inactive) | > 100 µM (inactive) | > 100 µM (inactive) |  |
| CN(C)CC1CCCC/C1=N\OC(=O)c1ccccc1 (stereo unspecified) | > 100 µM (inactive) | > 100 µM (inactive) | > 100 µM (inactive) | > 100 µM (inactive) | > 100 µM (inactive) | > 100 µM (inactive) | > 100 µM (inactive) | > 100 µM (inactive) | > 100 µM (inactive) | > 100 µM (inactive) | > 100 µM (inactive) | > 100 µM (inactive) | > 100 µM (inactive) | > 100 µM (inactive) | > 100 µM (inactive) | > 100 µM (inactive) | > 100 µM (inactive) | > 100 µM (inactive) |  |  |
| Cc1ccc(S(=O)(=O)n2cnc(CC(NC(=O)C3CCC(=O)N3C(=O)OCc3ccccc3)C(=O)N3CCCC3C(=O)NN)c2)cc1 (stereo unspecified) |  | > 100 µM (inactive) | > 100 µM (inactive) | 1.02 µM (active) | > 100 µM (inactive) | > 100 µM (inactive) |  | > 100 µM (inactive) |  |  | > 100 µM (inactive) |  |  | > 100 µM (inactive) | > 100 µM (inactive) |  | > 100 µM (inactive) | > 100 µM (inactive) |  | > 100 µM (inactive) |
| NCC1Nc2ccccc2[C@@H](O)C1O (stereo partly specified) |  | > 100 µM (inactive) | > 100 µM (inactive) | > 100 µM (inactive) | > 100 µM (inactive) | > 100 µM (inactive) | > 100 µM (inactive) | > 100 µM (inactive) | > 100 µM (inactive) | > 100 µM (inactive) | > 100 µM (inactive) | > 100 µM (inactive) | > 100 µM (inactive) | > 100 µM (inactive) | > 100 µM (inactive) | > 100 µM (inactive) | > 100 µM (inactive) | > 100 µM (inactive) | > 100 µM (inactive) |  |
| C=C[C@]1(O)CCC[C@]2(C)C(=O)CCC12C (stereo partly specified) | > 100 µM (inactive) | > 100 µM (inactive) | > 100 µM (inactive) | > 100 µM (inactive) | > 100 µM (inactive) |  |  | > 100 µM (inactive) | > 100 µM (inactive) | > 100 µM (inactive) | > 100 µM (inactive) | > 100 µM (inactive) | > 100 µM (inactive) | > 100 µM (inactive) | > 100 µM (inactive) | > 100 µM (inactive) | > 100 µM (inactive) | > 100 µM (inactive) | > 100 µM (inactive) |  |
| O=c1cc(-c2ccccc2F)[nH]c2cc3c(cc12)OCO3 | 0.0402 µM (active) | > 32.9 µM (inactive) | 0.0995 µM (active) | 0.711 µM (active) | 0.35 µM (active) | 0.247 µM (active) | 0.129 µM (active) | 0.182 µM (active) | 0.042 µM (active) | 0.504 µM (active) | 0.0356 µM (active) | 0.0341 µM (active) | 0.0993 µM (active) | 0.0147 µM (active) | 0.107 µM (active) | 0.0813 µM (active) | 0.0512 µM (active) | 0.0631 µM (active) | 0.035 µM (active) |  |
